Assay results from US5230998A, “Method for the prescreening of drugs targeted to the V3 hypervariable loop of the HIV-1 envelope glycoprotein gp 120” (priority 1991, dated 1993).
In brackets after ≈: the same amount, converted by molar mass.

What was measured:
[1] = biological target: T1, HIV-1 gp120 V3 hypervariable loop (Human immunodeficiency virus type 1 group M subtype B, UniProt P03375); test: biochemical; type: binding; conditions: for Inhibitory activity: Table 1, reaction between HIV-1 gp120 and anti-V3 loop antibodies; for inhibition at 50 µg/mL: read-out: percentage of inhibition; on Inhibitory activity: key: Chemicals with inhibitory activity are indicated by +
T1 construct: Polystyrene plates coated with recombinant gp120 and gp160, respectively; purchased American Bio-Technologies, Inc., Cambridge, Mass; host or cells: baculovirus expression system
Method: Wells of 96 well polystyrene plates (Immulon 2, Dynatech Laboratories, Inc., Chantilly, Va.) were coated with synthetic peptides (200 μl; 20μg/ml in 0.1 M Tris-HCl, pH 8.8) overnight at 20° C. The peptides were from the sequence of HIV-1, clone BH 10 envelope glycoproteins gp120 and gp41 (Neurath, A. R., Strick, N., and Lee, E. Y. S. (1990), "B-cell Epitope Mapping of Human Immunodeficiency virus (HIV-1) Envelope Glycoprotein with Long (19 to 36-residue) Synthetic Peptides", J. Gen. Virol., 71., 85-95) and from V3 hypervariable loops of 21 distinct HIV-1 isolates (clones) Neurath, A. R., and Strick, N., (1990), "Confronting the Hypervariability of an Immunodominant Epitope Eliciting Virus Neutralizing Antibodies from the Envelope Glycoprotein of the Human Immunodeficiency Virus Type 1 (HIV-1)", Molec. Immunol., 27, 539-549. The latter peptides corresponded to full-length V3 loops generated by disulfide bonds between N- and C- terminal cysteine residues. After washing with 0.14 M NaCl, 0.01 M Tris, 0.02% NaN3 (TS), the wells were postcoated with a mixture of bovine serum albumin (BSA) and gelatine (10 and 2.5 mg/ml, respectively) in TS. BSA was omitted from the postcoating solution for RIA tests in which antibodies to ATA were used. Polystyrene plates coated with recombinant gp120 and gp160, respectively, (500 ng/well; from American Bio-Technologies, Inc., Cambridge, Mass. and MicroGeneSys, Inc., West Haven, Conn., respectively) were also used for RIA and ELISA tests.
To define sites on gp120/gp41 reacting with ATA, the inhibitory effect of this compound was studied by RIA tests using gp120- and gp160-coated wells, respectively, and antisera (final dilutions 1:150) against synthetic peptides from the entire sequence of gp120/gp41 of HIV-1 BH 10. The preparation and biological properties of these antisera were described elsewhere (Neurath et al., (1990), J. Gen. Virol., 71, 85-95). Each of the antisera was diluted in a mixture of fetal bovine serum and goat serum (9:1) containing 0.1% Tween 20, adjusted to pH 8. ATA (final concentration 50 μg/ml) was added in one set of assays, but was omitted from a parallel set. After incubation overnight at 25° C., the plates were washed with TS. Attached rabbit IgG was detected using ^125 I-labeled anti-rabbit IgG, as described before (Neurath et al., 1990, J. Gen. Virol., 71, 85-95). Similarly, the inhibitory effect of ATA on the reaction of peptides derived from gp120/gp41 and of peptides derived from V3 hypervariable loops from gp120 of distinct HIV-1 isolates with the respective homologous anti-peptide antisera was studied. In the latter case, antisera were diluted 1:1,000 for the assays.
The inhibitory effect of ATA and of other compounds on the reaction between antibodies with predetermined specificity and gp120 (or synthetic peptides derived from it) was determined from the formula: [formula] An analogous formula was used to calculate the percentage of inhibition from optical density readings resulting from ELISA tests.
Chemicals other than ATA were screened for inhibitory activity essentially as described above. […] Chemicals with inhibitory activity established by the respective immunoassays were screened further for antiviral activity.
Commercially available ATA is a mixture of monomers and polymers of distinct molecular masses (Gonzalez et al., (1979) Biochem. Biophys. Acta, 562, 534-545); Cushman et al., (1991), J. Chem., 34, 329-337). The monomers [molecular mass (M.W.)=422.4 daltons] were separated from the polymers. ATA (20 mg/ml in the form of free acid neutralized with 0.4 M NaOH) was dialyzed against H2 O in a dialysis membrane with a molecular mass cutoff of 500 daltons.

HIV-1 = test: Antiviral activity: inhibition of P24 production in MT-2 cells; type: cell-based, HIV-1 IIIB; parameters: inhibition: dose or concentration left out as unconfirmed; conditions: Human immunodeficiency virus 1, MT2, Table 1; for EC50: read-out: EC50 (concentration at which the production of P24 was reduced to 50% of that detected in control cultures); for inhibition: read-out: percentage of inhibition of P24 nucleoprotein production
Method: All chemicals were tested at serial two-fold dilutions (1.25-80 μg/ml, prepared from a stock solution containing 10 mg/ml in dimethylsulfoxide). The chemicals were obtained from Aldrich, Milwaukee, Wis. or were synthesized. Their inhibitory activity was determined by two distinct methods, based on inhibition of synthesis of core protein P24 and on protection by the chemicals of cells against the cytopathic effect of HIV-1 (colorimetric method) respectively.
The chemicals were serially diluted in RPMI 1640 medium without phenol red (GIBCO, Grand Island, N.Y.) containing 10% fetal calf serum (FCS). Aliquots of the diluted solutions were added to wells of 96 well plates and mixed with an equal volume of diluted HIV-1 [multiplicity of infection (MOI) =0.0045]. After incubation for 1 hour at 37° C., 25 μl of polybrene (1 μg/ml) treated MT-2 cells (Harada, S., Koyanagi, Y., Yamamoto, N., (1985), "Infection of HTLV-III/LAV in HTLV-I-carrying Cells MT-2 and MT-4 and Application in a Plaque Assay", Science, 229, 563-566), (5,000 cells/well) were added. The mixture was incubated for 1 hour at 37° C. and the volume was adjusted with RPMI 1640 medium with 10% FCS to 200 μl. On the fourth day after incubation at 37° C., 100 μl of culture supernatants were collected from each well and equal volumes of fresh medium were added to the wells. The supernatants were assayed for P24 using a kit from Coulter Immunology (Hialeah, Fla.). On the sixth day, an indicator XTT tetrazolium dye (1 mg/ml; 50 μl/well; PolySciences, Inc., Warrington, Penna.) was added to the cells. After 4 hours, intracellular formazan was determined colorimetrically at 450 nm.
^c Chemicals with inhibitory activity in ELISA (RIA) tests were teste
^d EC50 = concentration at which the production of P24 was […]

Row | Structure (SMILES) | Inhibitory activity [1] | inhibition at 50 µg/mL [1] [%] | EC50 (HIV-1) [µg/mL] | inhibition (HIV-1) [%]
1 | Nc1ccc2c3c(cccc13)-c1ccccc1-2 [compound 65] | + | 27.4 | 3 (≈ 13.8 µM) | 100
2 | Nc1ccccc1-c1ccccc1 [compound 50] | + | 70.5 |  | 
3 | O=C(O)C1=CC(=C(c2ccc(O)c(C(=O)O)c2)c2ccc(O)c(C(=O)O)c2)C=CC1=O [compound 122] | + |  | 12 (≈ 28.4 µM) | 83
4 | CC(C)C[C@H](NC(=O)[C@H](C)NC(=O)[C@H](CC(C)C)NC(c1ccccc1)(c1ccccc1)c1ccccc1)C(=O)O [compound 114] | + | 62.1 | > 80 | 14
5 | O=Cc1ccc(-c2ccccc2)cc1 [compound 93] | + | 21 | > 80 | 32
6 | CC(=O)C1=CC(=C(c2ccc(O)c(C(C)=O)c2)c2ccc(O)c(C(C)=O)c2)C=CC1=O [compound 140] | + | 69.4 |  | 
7 | C=CC1=C(C)c2cc3[nH]c(cc4nc(cc5[nH]c(cc1n2)c(C)c5CO)C(C)=C4CCC(=O)O)c(CCC(=O)O)c3C [compound 152] | + | 82.6 | 3 (≈ 5.29 µM) | 100
8 | O=C(O)CCC1=C(CC(=O)O)c2cc3[nH]c(cc4nc(cc5[nH]c(cc1n2)c(CCC(=O)O)c5CC(=O)O)C(CC(=O)O)=C4CCC(=O)O)c(CC(=O)O)c3CCC(=O)O [compound 164] | + | 45 | 2.3 (≈ 2.77 µM) | 100
9 | O=C(O)CC(c1ccccc1)(c1ccccc1)c1ccccc1 [compound 2] | + | 27 |  | 
10 | O=C(O)C1=CC(I)=CC(=C(c2cc(I)cc(C(=O)O)c2O)c2cc(I)cc(C(=O)O)c2O)C1=O [compound 131] | + | 74.8 | 71 (≈ 88.7 µM) | 41
11 | O=C(O)COc1cc2oc3cc(=O)c(OCC(=O)O)cc-3c(-c3ccccc3)c2cc1OCC(=O)O [compound 129] | + | 56.8 | 15 (≈ 30.3 µM) | 88
12 | O=C(O)CCC1=C(CC(=O)O)c2cc3[nH]c(cc4nc(cc5[nH]c(cc1n2)c(CC(=O)O)c5CCC(=O)O)C(CC(=O)O)=C4CCC(=O)O)c(CC(=O)O)c3CCC(=O)O [compound 163] | + | 41.1 | 9.8 (≈ 11.8 µM) | 99
13 | CC1=C(C(=O)O)C(=O)C(C(C)(C)C)=CC1=C(c1cc(C(C)(C)C)c(O)c(C(=O)O)c1C)c1cc(C(C)(C)C)c(O)c(C(=O)O)c1C [compound 130] | + | 38.6 | 80 (≈ 126 µM) | 38
14 | O=C1OC(=O)C2C3c4ccccc4C(c4ccccc43)C12 (centres unmarked) [compound 106] | + | 77.5 | 18 (≈ 65.1 µM) | 82
15 | C=CC1=C(C)c2cc3[nH]c(cc4nc(cc5[nH]c(cc1n2)c(C)c5C=C)C(C)=C4CCC(=O)O)c(CCC(=O)O)c3C [compound 158] | + | 55.8 | 1 (≈ 1.78 µM) | 100
16 | Nc1ccc2c(c1)Cc1cc(Br)ccc1-2 [compound 63] | + | 37.1 | 68 (≈ 261 µM) | 19
17 | O=C(O)c1ccc(-c2c3nc(c(-c4ccc(C(=O)O)cc4)c4ccc([nH]4)c(-c4ccc(C(=O)O)cc4)c4nc(c(-c5ccc(C(=O)O)cc5)c5ccc2[nH]5)C=C4)C=C3)cc1 [compound 160] | + | 84.3 | 1.3 (≈ 1.64 µM) | 100
18 | O=C(O)CNC(c1ccccc1)(c1ccccc1)c1ccccc1 [compound 108] | + | 33.5 |  | 
19 | c1ccc(CNc2ccccc2)cc1 [compound 42] | + | 28.8 |  | 
